In ChEMBL document CHEMBL5550100, “Discovery of LHF418 as a new potent SOS1 PROTAC degrader” (Bioorg Med Chem, 2024):
Calls of active or inactive are those of the source. The calls are words filed in the database; no cut-off is given here.

Columns and labels:
[1] = biological target: T1, Protein cereblon/Son of sevenless homolog 1 (Homo sapiens, UniProt Q07889+Q96SW2); test: PROTAC activity at CRBN/SOS1 in human A549 cells assessed as half life of SOS1 at 3 uM incubated for 24 hrs by immunoblot analysis; format: cell-based
[2] = biological target: GTPase KRas (Homo sapiens) (UniProt P01116); test: Inhibition of KRAS signalling in serum-starved human A549 cells assessed as decrease in ERK1/2 phosphorylation upto 10000 nM preincubated for 24 hrs followed by EGF stimulation for 1 hr by immunoblot analysis; format: cell-based; settings: time 25.0 hrs
[3] = biological target: T1, Protein cereblon/Son of sevenless homolog 1; test: PROTAC activity at CRBN/SOS1 in human A549 cells assessed as protein degradation incubated for 24 hrs by immunoblot analysis; format: cell-based
[4] = biological target: T1, Protein cereblon/Son of sevenless homolog 1; test: PROTAC activity at CRBN/SOS1 in human A549 cells assessed as half life of SOS1 at 3 uM by immunoblot analysis; format: cell-based
[5] = biological target: T1, Protein cereblon/Son of sevenless homolog 1; test: PROTAC activity at CRBN/SOS1 in human A549 cells assessed as protein degradation at 3 uM by immunoblot analysis; format: cell-based; settings: time <= 72.0 hrs, TDE = time-dependent effect
[6] = biological target: Protein cereblon/Son of sevenless homolog 1 (Homo sapiens, UniProt Q07889+Q96SW2, G12D); test: PROTAC activity at CRBN/SOS1 in human HPAF-II cells harboring KRAS G12D mutant assessed as protein degradation by immunoblot analysis; format: cell-based
[7] = biological target: T1, Protein cereblon/Son of sevenless homolog 1; test: PROTAC activity at CRBN/SOS1 in human A549 cells assessed as protein degradation at 0.1 uM incubated for 24 hrs by immunoblot analysis relative to control; format: cell-based
[8] = biological target: T1, Protein cereblon/Son of sevenless homolog 1; test: PROTAC activity at CRBN/SOS1 in human A549 cells assessed as protein degradation at 3 uM incubated for 24 to 72 hrs by immunoblot analysis; format: cell-based; settings: time 24-72 hrs
[9] = biological target: T1, Protein cereblon/Son of sevenless homolog 1; test: PROTAC activity at CRBN/SOS1 in human A549 cells assessed as protein degradation upto 10000 nM incubated for 24 hrs by immunoblot analysis relative to control; format: cell-based
[10] = biological target: T1, Protein cereblon/Son of sevenless homolog 1; test: PROTAC activity at CRBN/SOS1 in human A549 cells assessed as protein degradation at 10 uM incubated for 24 hrs by immunoblot analysis relative to control; format: cell-based
[11] = biological target: T1, Protein cereblon/Son of sevenless homolog 1; test: PROTAC activity at CRBN/SOS1 in BI3406-pretreated human A549 cells assessed as protein degradation at 1 uM incubated for 24 hrs by immunoblot analysis; format: cell-based
[12] = system: A549; test: Effect on GSPT1 in human A549 cells upto 10000 nM incubated for 24 hrs by immunoblot analysis; format: functional, cell-based
[13] = biological target: T1, Protein cereblon/Son of sevenless homolog 1; test: PROTAC activity at CRBN/SOS1 in CHX-pretreated human A549 cells assessed as protein degradation at 3 uM incubated for 12 hrs by immunoblot analysis; format: cell-based
[14] = system: A549; test: Effect on SOS2 in human A549 cells upto 10000 nM incubated for 24 hrs by immunoblot analysis; format: functional, cell-based
[15] = biological target: T1, Protein cereblon/Son of sevenless homolog 1; test: PROTAC activity at CRBN/SOS1 in MLN-4924-pretreated human A549 cells assessed as protein degradation at 1 uM incubated for 24 hrs by immunoblot analysis; format: cell-based
[16] = biological target: T1, Protein cereblon/Son of sevenless homolog 1; test: PROTAC activity at CRBN/SOS1 in bafilomycin-pretreated human A549 cells assessed as protein degradation at 1 uM incubated for 24 hrs by immunoblot analysis; format: cell-based
[17] = system: MIA PaCa-2; test: Inhibition of colony formation in human MIA PaCa-2 cells upto 30 uM incubated for 14 days by crystal violet staining based analysis; format: functional, cell-based; settings: time 14.0 day
[18] = biological target: Protein cereblon/Son of sevenless homolog 1 (Homo sapiens, UniProt Q07889+Q96SW2, G12C); test: PROTAC activity at CRBN/SOS1 in human MIA PaCa-2 cells harboring KRAS G12C mutant assessed as protein degradation by immunoblot analysis; format: cell-based
[19] = biological target: T1, Protein cereblon/Son of sevenless homolog 1; test: PROTAC activity at 6His-tagged human CRBN TBD domain (318 to 425 residues) expressed in Escherichia coli BL21(DE3)/GST-tagged recombinant human SOS1 (569 to 1049 residues) expressed in Escherichia coli BL21(DE3) protein-protein interaction assessed as ternary complex formation incubated for 1 hr by AlphaScreen assay
[20] = biological target: T1, Protein cereblon/Son of sevenless homolog 1; test: PROTAC activity at CRBN/SOS1 in lenalidomide-pretreated human A549 cells assessed as protein degradation at 1 uM incubated for 24 hrs by immunoblot analysis; format: cell-based
[21] = biological target: T1, Protein cereblon/Son of sevenless homolog 1; test: PROTAC activity at CRBN/SOS1 in MG-132-pretreated human A549 cells assessed as protein degradation at 1 uM incubated for 24 hrs by immunoblot analysis; format: cell-based
[22] = biological target: T1, Protein cereblon/Son of sevenless homolog 1; test: PROTAC activity at CRBN/SOS1 in human A549 cells assessed as protein degradation at 10 uM incubated for 24 hrs by immunoblot analysis; format: cell-based

C[C@@H]1C[C@@H]([C@H](O)CC2CC(=O)NC(=O)C2)C(=O)[C@@H](C)C1
T1/2 [1]: > 24 h

COc1cc2nc(C)nc(N[C@H](C)c3cc(N)cc(C(F)(F)F)c3)c2cc1O[C@H]1CCN(C(=O)CCCCCCCC(=O)Nc2cccc3c2CN(C2CCC(=O)NC2=O)C3=O)C1 (stereo partly drawn)
inhibition [2]: Active | DC50 [3]: 209 nM | Activity ([3]; dose <= 10000.0 µM): Dose-Dependent Effect | T1/2 [4]: 22.5 h | Activity [5]: Tde | DC50 [6]: 354 nM | Activity [7]: 68% | Activity [8]: Active | Emax [9]: > 80% | Activity [10]: 69% | Activity [11]: inactive | Activity [12]: inactive | Activity [13]: Active | Activity [14]: inactive | Activity [15]: inactive | Activity [16]: Active | inhibition [17]: Active | DC50 [18]: 540 nM | Activity [19]: Active | Activity [20]: inactive | Activity [21]: inactive

COc1cc2nc(C)nc(N[C@H](C)c3cc(N)cc(C(F)(F)F)c3)c2cc1O[C@H]1CCN(C(=O)CCCCCCCC(=O)Nc2cccc3c2CN(C2CCC(=O)N(C)C2=O)C3=O)C1 (stereo partly drawn)
Activity [22]: inactive
